Measurements as given in patent US10585102B2, “Characterization of cancer using detection of activated leukocyte cell adhesion molecule (ALCAM) shedding” (Vanderbilt University, priority 2012, dated 2020).
Like-named read-outs stand apart in the source and are kept apart here.

Experiments:
[1] = tested on: HEp3 cells; assay: Transwell migration with pathway inhibitors, with or without anti-CD151 antibody 1A5; type: cell-based, human
Method: In Vitro Transwell Migration: Tumor cells in a single cell suspension were plated into the top chamber of 8 μm transwell (Costar) inserts in the presence of serum free/insulin free media. Cell culture media containing 10% fetal bovine serum was placed in the bottom chamber to serve as a chemoattractant. Migration assays were carried out for 12 hrs in a 37° C. cell culture incubator containing 5% CO2. The top surface of the inserts was cleaned with a cotton swab soaked with PBS to remove the non-migrated cells. The transwell inserts were subsequently fixed in methanol and stained with 0.2% crystal violet. The number of migrated cells was counted in 3 independent fields under 20× magnification with a light microscope.
Transwell migration assays were performed in the presence or absence of each inhibitor together with or without the anti-CD151 antibody 1A5.

[2] = tested on: Rap1A; assay: Rap1 activation assay (GTP-bound Rap1A pull-down, immunoblot); type: cell-based; conditions: HEp3 cells; PKCα inhibited by pharmacological means
Method: Rap1 activation was analyzed using the Rap1 activation kit (Chemicon). All treatments were performed in the presence of serum free/insulin free media. Cells to be assayed were washed with ice cold PBS and lysed in RIPA like Rap1 buffer (10% glycerol, 50 mM Tris/HCl, 150 mM NaCl, 5 mM phenylmethylsulfonyl fluoride, 1 mM sodium orthovanadate). The lysates were pushed through a 25 gauge syringe and cleared by centrifugation at max speed at 4 degrees for 10 min. Equal amounts of lysates were immunoprecipitated with Ra1GDS RBD conjugated agarose beads for 45 minutes at 4° C. After washing the beads where resuspended with sample buffer and boiled for 5 minutes. The immunoprecipitates were separated by SDS-Page as mentioned above, transferred to PVDF membranes, probed with the anti-Rap1 antibody and horse radish peroxidase-conjugated secondary antibody. After washing the membranes were developed by autoradiography.
To evaluate whether Rap1A was activated in response to CD151 clustering as well as ALCAM-ALCAM ligation, HEp3 cells were treated with 1A5 or seeded on ALCAM-FC for up to 48 hrs. Active Rap1A in the cells was evaluated by immunblotting of GTP-bound Rap1A affinity purified from lysates with Ra1-GDS beads.

[3] = tested on: PC3 cells; assay: ALCAM expression in response to TGFβ (RT-PCR, Western blot); type: cell-based, human
Method: (§1) SDS-PAGE and immunoblotting. Cells (2.5×10^5) were plated in 6-well dishes. After 24 h, cells were serum starved in Opti-MEM for 16 h and then treated in the presence or absence of indicated growth factors or inhibitors, for 48 h. After that, the cells were lysed in TNE Lysis Buffer (20 mM Tris-Cl [pH 7.4], 0.5 mM EDTA, 1% Triton X-100, 150 mM NaCl, protease inhibitor cocktail (sigma), 1 mM phenylmethylsulfonyl fluoride). Total protein in the lysates was quantified using BCA assay (BioRad). Conditioned media samples were concentrated with microcon centrifugal filters (Millipore) following manufacturers protocol, which were eluted directly in 5× sample buffer for Western blot analysis. Protein loading for conditioned-medium samples for Western blot analysis was adjusted according to the total protein in cell lysates. Conditioned media and total protein was subjected to SDS-PAGE and electrophoretic transfer to polyvinylidene difluoride membranes (Immobilon P, Millipore, Inc., Bedford, Mass.). Immunodetection was done by conventional chemiluminescence
(§2) The mRNA samples were prepared from tumor cells lysed in TRI Reagent (Ambion) and purified using phenol extraction, followed by real-time polymerase chain reaction (RT-PCR). The following qPCR primers were used ALCAM, […] (forward) and […] (reverse); ADAM17, […] (forward) and […] (reverse); and glyceraldehyde-3-phosphate dehydrogenase, […] (forward) and TTCCCCATGGTGTCTGAGC (reverse).
(§3) ALCAM is proteolytically shed from PC3 cells (FIG. 21). Absence of the cytoplasmic tail confirms that the ectodomain is shed (FIG. 21A). Moreover, ALCAM is absent from PC3-derived exosomes ensuring that the ectodomain is shed and not released with cell-derived microparticles (FIG. 21B). Since prostate cancer disseminates predominantly to bone we selected cytokines thought to be involved in this process, including TGFβ. […] To further explore the response to exogenous stimulation with TGFβ, ALCAM expression in PC3 cells was compared to ALCAM expression in LNCaP cells which are unable to respond to the cytokine because they lack TGFβ receptor type I (FIGS. 23B and 23C). […] TGFβ-induced expression in PC3 cells could be abrogated with the small molecule inhibitor SB431542 (FIG. 23D, 10 μm; Sigma) while TGFβ-induced ALCAM mRNA and protein expression could be restored in LNCaP cells when the cells were transfected with dominant-active TGFβ receptor type I (FIGS. 23E and 23F).

[4] = tested on: PC3 cells; assay: ALCAM shedding in conditioned media of cytokine-treated cells (ELISA); type: cell-based, human; conditions: PC3 concentrated conditioned media; 8 agents tested
[5] = tested on: LNCaP cells; assay: ALCAM expression in response to TGFβ (RT-PCR, Western blot); type: cell-based, human; conditions: lack TGFβ receptor type I
Method: as §1, §2, §3

[6] = In vivo ALCAM serum half-life; conditions: serum injected retrorbitally in ALCAM KO mice; ELISA
Method: Serum was harvested from ALCAM wild-type, mixed background, mice and pooled. Combined serum collected from WT mice was injected retrorbitally in ALCAM KO mice (100 μl/mouse). ALCAM KO mice were pre-bled via saphenous vein bleed, and then bled at 10 mins, 2 hours, 4 hours, 24 hours and 48 hours (n=2/time point; total n=10). WT pooled serum was used as ELISA control to quantitatively determine ALCAM serum half-life.
To determine if tumor-derived ALCAM is the source of elevated circulating ALCAM, species-specific antibodies were used to monitor circulating levels of both host (mouse) ALCAM and tumor (human) ALCAM longitudinally during orthotopic and subcutaneous growth of PC3 cells (FIG. 24). The half-life of human ALCAM in the circulation of its mouse host was determined to confirm that tumor-derived ALCAM could act as a stable biomarker in vivo (FIG. 25).

[7] = HEp3 cells, ± anti-CD151 antibody 1A5

## COc1ccc2c(c[n+](C)c3c4cc5c(cc4ccc23)OCO5)c1OC [Chelerythrin]
[1]; [7]
  Transwell migration in the presence or absence of inhibitor, with or without 1A5: allowed for migration of untreated cells but prevented 1A5 from inhibiting migration
[2]
  Rap1A activation by 1A5 after PKCα disruption: 1A5 was unable to promote Rap1A activation

## COC(=O)[C@H](CC(C)C)NC(=O)c1ccc(NC[C@@H](N)CS)cc1-c1cccc2ccccc12 [GGTI-298]
[1]; [7]
  Transwell migration in the presence or absence of inhibitor, with or without 1A5: allowed for migration of untreated cells but prevented 1A5 from inhibiting migration

## NC(=O)c1ccc(-c2nc(-c3ccc4c(c3)OCO4)c(-c3ccccn3)[nH]2)cc1 [SB431542]
[3]; 10 μm inhibitor, 10 ng/ml TGFβ, 48 hrs
  TGFβ-induced ALCAM expression: abrogated

## N#CC(=C(/N)Sc1ccccc1N)/C(C#N)=C(\N)Sc1ccccc1N [U0126]
[1]
  Transwell migration in the presence or absence of inhibitor, with or without 1A5: inhibited migration independent of anti-CD151 antibody treatment

## TGFβ
[4]
  ALCAM shedding: promoted ALCAM shedding relative to overall total protein increase
[5]
  response of ALCAM expression to TGFβ: did not respond
[3]; 10 ng/ml TGFβ, 48 hrs
  ALCAM gene transcription (quantitative RT-PCR): able to induce ALCAM gene transcription in PC3
[3]; cell lysate and conditioned media
  ALCAM protein expression and ectodomain shedding (Western blot): increased levels of ALCAM protein expression and ectodomain shedding

B1: ALCAM: circulating soluble Activated Leukocyte Cell Adhesion Molecule (shed ectodomain) in serum (protein, UniProt Q13740 28-527, looked up)
extracellular domain: WYTVNSAYGDTIIIPCRLDVPQNLMFGKWKYEKPDGSPVFIAFRSSTKKSVQYDDVPEYKDRLNLSENYTLSISNARISDEKRFVCMLVTEDNVFEAPTIVKVFKQPSKPEIVSKALFLETEQLKKLGDCISEDSYPDGNITWYRNGKVLHPLEGAVVIIFKKEMDPVTQLYTMTSTLEYKTTKADIQMPFTCSVTYYGPSGQKTIHSEQAVFDIYYPTEQVTIQVLPPKNAIKEGDNITLKCLGNGNPPPEEFLFYLPGQPEGIRSSNTYTLTDVRRNATGDYKCSLIDKKSMIASTAITVHYLDLSLNPSGEVTRQIGDALPVSCTISASRNATVVWMKDNIRLRSSPSFSSLHYQDAGNYVCETALQEVEGLKKRESLTLIVEGKPQIKMTKKTDPSGLSKTIICHVEGFPKPAIQWTITGSGSVINQTEESPYINGRYYSKIIISPEENVTLTCTAENQLERTVNSLNVSAISIPEHDEADEISDENREKVNDQAK
modifications: extracellular domain shed soluble form
[6]
  half-life in circulation: 17 h
